Where a SMILES comes first, the peptide text is derived from it.
Experiments:
Format in all cases: in vivo, human
[1] = tested on: sweet taste; experiment: Comparisons of taste quality and intensity, solutions in water (Example 12, Table I); details: for Other taste attributes: in vivo
Excerpt: Sweetness is rapid and fades quickly on rinsing of the mouth.

[2] = tested on: sweet taste; experiment: Structure activity example, tasting of analogues (Example 11); details: when tasted
Excerpt: During our invention process, we observed repeatedly that a small structural difference can cause dramatic change in the taste. For example, compound N-(2-methylcyclohexyl)-2,3,4,5,6-pentafluoro-benzamide is very sweet; moving the methyl group to the 4-position render the resulting N-(4-methylcyclohexyl)-2,3,4,5,6-pentafluoro-benzamide bitter; moving the methyl group to nitrogen render the resulting N-cyclohexyl-2,3,4,5,6-pentafluoro-N-methyl-benzamide tasteless.
There is however an underlying theme, that being that an amide functionality is important.

[3] = tested on: sweet taste; experiment: Comparison of sweetness at 5 ppm in plain water (Example 13)
Experimental: Two molecules were compared to each other based on sweetness. Both molecules were evaluated at 5 ppm in plain water.

[4] = tested on: sweet taste; experiment: Sweetness enhancement of an 8 brix beverage, trained technical panel (Example 14); details: 4 ppm in 8 brix beverage; for sweet intensity rating: ten point scale, nine most sweetness, zero no sweetness
Experimental: An 8 brix, the measurement of the mass ratio of dissolved sugar in a liquid, beverage was prepared to evaluate two sweeteners, 2,3,5,6-tetrafluoro-4-methyl-N-(2-methylcyclohexyl)benzamide-(sweetener A) and N-(2-methylcyclohexyl)-2,3,4,5,6 pentafluoro-benzamide)—(sweetener B). The objective was to determine if the sweeteners enhanced an 8 brix beverage to make it taste more similar to a 10 brix beverage. There were four samples evaluated an 8 brix beverage blank, sweetener A in 8 brix beverage, sweetener B in 8 brix beverage and a 10 brix beverage blank. Both the sweeteners were evaluated at 4 ppm. The beverage samples were evaluated by a trained technical panel. The panel evaluated the sweetness profile and the sweet intensity. The intensity was rated on a ten point scale with nine being the most sweetness and zero having no sweetness. […] The sweet intensity ratings were as follows (see Table 2) sample A rated 6, sample B rated 7, sample C rated 9 and sample D rated 9.

[5] = tested on: sweet taste; experiment: Cola beverage containing Aspartame, trained technical panel (Example 15); details: for sweetness profile rating: scale 0-9, 9 the best
Experimental: The sweeteners Benzamide, 2,3,5,6-[…]-4-methyl-N-(2-methylcyclohexyl)—(sweetener A) and Benzamide, 2,3,4,5,6-pentafluoro-N-(2-methylcyclohexyl)—(sweetener B) were both evaluated in a cola beverage that contained Aspartame. The purpose of this experiment was to evaluate the sweeteners profile in a sweetener blend. There were three separate samples evaluated, see Table 3. The samples were evaluated by a trained technical panel. The sweetness profile was rated on a scale from 0-9, with 0 being the worst and 9 the best. The first sample, Sample A, containing only aspartame at 300 ppm was rated a 4. […] The second sample, Sample B, contained Aspartame at 300 ppm and sweetener A at 3 ppm. […] The rating for sample B was a 9 for sweetness. The third sample, sample C, contained Aspartame at 300 ppm and sweetener B at 3 ppm.

[6] = tested on: sweet taste; experiment: Sweetener blends with Ace-K or Sucralose, trained technical panel (Example 16); details: for overall group rating: scale 1-9, 9 the best; for blend rating: scale 1 to 9
Experimental: A comparison of the synergistic effects the Benzamide, 2,3,4,5,6-Pentafluoro-N-(2-methylcyclohexyl)—(sweetener A) in combination with acesulfame-k, herein referred to as Ace-K and Sucralose was compared with the effects of Benzamide, 2,3,5,6-tetrafluoro-4-methyl-N-(2-methylcyclohexyl)—(sweetener B) in combination with the same commercial sweeteners. The samples were evaluated by a trained technical panel. The first sample was Ace-K at 100 ppm.
A similar evaluation with done with Sucralose as the commercial sweetener. An evaluation of Sucralose at 60 ppm was done in plain water. […] A comparison of the synergistic effects of sweetener A at 3 ppm in combination with Sucralose at 60 ppm was evaluated against sweetener B in the same combination. […] The blends were evaluated on a scale for 1 to 9.

[7] = tested on: sweet taste; experiment: Sweetness in muffins, trained technical panel (second Example 14); details: 10 ppm in muffin; for sweetness intensity rating: scale 0-9, 9 most sweetness
Experimental: The sweeteners 2,3,5,6-tetrafluoro-4-methyl-N-(2-methylcyclohexyl)benzamide (sweetener A) and N-(2-methylcyclohexyl)-2,3,4,5,6 pentafluoro-benzamide -(sweetener B) were both evaluated in muffins. They were evaluated along with a blank muffin sample. Both sweeteners were evaluated at 10 ppm in the muffin. The samples were evaluated by a trained technical panel. They were asked to evaluate the profile and to give a rating between 0-9 on the sweetness intensity. The rating scale ranged from zero for no sweetness to 9 for the most sweetness. […] The samples were rating on sweet intensity (see Table 3). The samples ratings were as follows; sample A rated 5, sample B rated 6, sample C rated 8.

[8] = 3 ppm with Aspartame 300 ppm in cola beverage
[9] = 3 ppm in combination with Ace-K at 100 ppm
[10] = 3 ppm in combination with Sucralose at 60 ppm
[11] = Aspartame 300 ppm only in cola beverage

## O=C(N[C@H]1CCCc2ccccc21)c1ccoc1 (single isomer, unassigned) [1S isomer, reference compound]
[1]
  Other taste attributes: 1S isomer is tasteless

## CC1CCCCC1OC(=O)c1c(F)c(F)c(F)c(F)c1F (stereo not shown) [2,3,4,5,6-pentafluorobenzoic acid 2-methylcyclohexyl ester]
[2]
  taste: burning sensation

## Cc1c(F)c(F)c(C(=O)NC(C)C(C)C)c(F)c1F (stereo not shown) [2,3,5,6-tetrafluoro-4-methyl-N-(1,2-Dimethyl-propyl)benzamide, reference compound]
[1]
  Other taste attributes: Clean

## Cc1c(F)c(F)c(C(=O)NC2CCCCC2C)c(F)c1F (stereo not shown) [2,3,5,6-tetrafluoro-4-methyl-N-(2-methylcyclohexyl)benzamide]
[3]
  taste description: mild vegetative, green and very bitter with some sugary notes
[4]
  sweetness profile comments: sour and slightly sweeter than the 8 brix blank
  sweet intensity rating: 7
[5]; [8]
  sweetness comments: sweetness was well rounded, lingered, and gave mouthfeel
  sweetness profile rating: 9
[6]; [9]
  taste comments: delayed sweetness, astringency, not as strong a sweetness as the combination with sweetener A
  overall group rating: 7
[6]; [10]
  taste comments: not as sweet as the combination with sweetener A, delayed sweetness
  blend rating: 7
[7]
  profile description: slightly sweet, not much difference in profile to the blank muffin sample
  sweetness intensity rating: 6

## CC1=CC(=O)[N-]S(=O)(=O)O1.[K+] [Ace-K, acesulfame-k]
[6]; Ace-K at 100 ppm alone
  taste comments: delayed sweetness, some off notes, astringent and bitter

## COC(=O)[C@H](Cc1ccccc1)NC(=O)[C@@H](N)CC(=O)O [Aspartame] (H-Asp-Phe-OMe)
[5]; [11]
  sweetness comments: sweetness in the beverage spiked and then disappeared
  sweetness profile rating: 4

## Cc1c(F)c(F)c(C(=O)N[C@H](C)C2CCCCC2)c(F)c1F [Compound 40, (R)-N-1-cyclohexylethyl-2,3,5,6-tetrafluoro-4-methyl-benzamide]
[1]
  Other taste attributes: Bitter at 20 ppm
[1]; sweetness onset and duration relative to sucrose
  Profile: Poor sweet taste profile

## CC(C)C(C)NC(=O)c1c(F)c(F)c(F)c(F)c1F (stereo not shown) [Compound 53, N-(1,2-dimethylpropyl)-2,3,4,5,6-pentafluoro-benzamide]
[1]
  Other taste attributes: Clean

## Cc1cc(C)c(C(=O)NC(C)C(C)(C)C)c(C)c1 (stereo not shown) [Example 2, 2,4,6-trimethyl-N-(1,2,2-trimethylpropyl)-benzamide]
[1]
  Other taste attributes: Clean

## CC1CCCCC1NC(=O)c1c(F)c(F)c(F)c(F)c1F (stereo not shown) [Example 6, N-(2-methylcyclohexyl)-2,3,4,5,6-pentafluoro-benzamide]
[1]; 1 ppm in water
  equal in sweetness to sucrose: 1-2 % sucrose
  taste description: sweetness is not immediate but builds after a few seconds but is very clean, lacking bitterness, off-taste or negative attribute
[1]; 4% sucrose plus 1 ppm in water
  rated as sweet as sucrose: 8 % sucrose
  taste description: longer lasting and considered to be quite acceptable sweet character lacking bitterness
[1]; 4% sucrose plus 5 ppm in water
  taste description: too sweet and too long lasting
[1]; 5 ppm in water
  equal in strength to sucrose: 4-6 % sucrose
  sweet character lasts longer than sucrose: up to 10 times longer
  taste description: sweetness is not immediate but is very clean, lacking bitterness, off-taste or negative attribute
[1]
  Other taste attributes: Clean
[1]; low concentrations <4 ppm
  effect in combination with sucrose: synergistic effect with sucrose
[3]
  taste description: mouth coating, intense sweet, no bitter notes, and had a fast sweetness onset
[4]
  sweetness profile comments: sweeter, more mouthwatering, had a slight astringent aftertaste and had a similar sweetness profile to the 10 brix beverage
  sweet intensity rating: 9
[2]
  taste: very sweet
[5]; [8]
  sweetness comments: sweetness had more impact than Sample A, but not as intense as Sample B
  sweetness profile rating: 6
[6]; [9]
  taste comments: strong sweetness upfront, bitter, enhanced bitterness in combination
  overall group rating: 9
[6]; [10]
  taste comments: enhanced sweetness, more rounded, no bitter, very strong sweet profile
  blend rating: 9
[7]
  profile description: sweeter, long lasting sweetness and mouthwatering
  sweetness intensity rating: 8

## CC1CCC(NC(=O)c2c(F)c(F)c(F)c(F)c2F)CC1 (stereo not shown) [N-(4-methylcyclohexyl)-2,3,4,5,6-pentafluoro-benzamide]
[2]
  taste: bitter

## O=C(N[C@@H]1CCCc2ccccc21)c1ccoc1 [N-[(1R)-1,2,3,4-tetrahydro-1-naphthalenyl]-3-furancarboxamide, reference compound]
[1]
  Other taste attributes: Clean

## CN(C(=O)c1c(F)c(F)c(F)c(F)c1F)C1CCCCC1 [N-cyclohexyl-2,3,4,5,6-pentafluoro-N-methyl-benzamide]
[2]
  taste: tasteless

## OC[C@H]1O[C@H](O[C@]2(CCl)O[C@H](CCl)[C@@H](O)[C@@H]2O)[C@H](O)[C@@H](O)[C@H]1Cl [Sucralose]
[6]; Sucralose at 60 ppm alone in plain water
  taste comments: sweet onset, mouthwatering, sweetness lingers

## OC[C@H]1O[C@@](CO)(O[C@H]2O[C@H](CO)[C@@H](O)[C@H](O)[C@H]2O)[C@@H](O)[C@@H]1O [Sucrose, reference compound]
[1]; 4% sucrose in water
  taste description: moderate sweetness and mouthfeel
[1]; 8% sucrose in water
  taste description: good level sweetness and excellent mouthfeel

Reference: patent publication US20090047379A1, “Benzamide Compounds Useful as High Potency Sweet Taste Enhancers” (priority 2007, published 2009)
